From patent US9814714B2, “Kinase modulation, and indications therefor” (Plexxikon Inc., priority 2015, dated 2017) come the findings set out here.

Assay [1] has as its system pERK in A431 cells (over-expression of EGFR). As to the kind of experiment: pERK levels in A431. It is filed as cell-based. The conditions noted are these: human SCC cell line. The protocol:
(§1) The compound of Formula II was also evaluated in the human SCC cell line A431 and the human breast adenocarcinoma cell line SKBR3 as these cells achieve MAPK pathway activation by upstream signals feeding into RAS (through over-expression of EGFR and HER2, respectively).
(§2) Phospho-ERK AlphaScreen® assay: The degree of ERK phosphorylation was determined using an AlphaScreen® assay where an increase in ERK1/2 phosphorylation at Thr202/Tyr204 brought the donor and acceptor AlphaScreen® beads into close proximity, generating a signal for quantification. To determine the effects of compound treatment on phosphorylation of ERK1/2, cells were plated in a 96-well plate and treated with an 8-point titration of compound for one hour at 37° C. before lysis. To detect pERK, cell lysates were incubated with streptavidin-coated AlphaScreen® donor beads, anti-mouse IgG AlphaScreen® acceptor beads, a biotinylated anti-ERK1/2 rabbit antibody, and a mouse antibody that recognizes ERK1/2 only when it is phosphorylated on Thr202 and Tyr204. […] An increase in ERK1/2 phosphorylation at Thr202/Tyr204 brings the donor and acceptor AlphaScreen® beads into close proximity, generating a signal that can be quantified on an EnVision reader (Perkin Elmer).
(§3) Phospho-ERK immunoblot analysis: Western blots were performed by standard techniques and analyzed on an Odyssey Infrared Scanner (Li-COR Biosciences). […]

Assay [2] deals with pERK in SKBR3 cells (over-expression of HER2). As to the kind of experiment: pERK levels in SKBR3. The conditions noted are these: human breast adenocarcinoma cell line. Format: cell-based. How it is done: as §1, §2, §3
The target of a further assay is BRAF_V600K (Homo sapiens, UniProt P15056, V600K). As to the kind of experiment: RAF kinase biochemical assay, BRAF V600K. To be noted: Table 3; ATP 100 μM. How it is done:
(§4) BRAF proteins were produced in insect cells at Plexxikon Inc. as N-terminally His-tagged fragments encompassing the kinase domain.
(§5) 1) Test compounds in DMSO were serially diluted and plated into 384-well assay plates at 1 μL/well.
(§6) 2) Added were 15 μL/well of RAF enzyme and biotinylated-MEK1 substrate in kinase buffer.
(§7) 3) Added were 4 μL of ATP (500 μM) in kinase buffer.
(§8) 5) After a brief spin down, the plate was incubated at about room temperature for 40-50 minutes. 6) Added was 5 μL of Stop buffer at final EDTA 20 mM; anti-phospho-MEK1 1:2,500; donor/acceptor beads 3 μg/mL. 7) After brief spin down, the plate was incubated at room temperature for about 3 hours. 8) The plate was read on the Envision multilabel plate reader (Perkin Elmer). […] 2. Results

Another assay has as its system NOMO-1 cells. As to the kind of experiment: Growth assay (CellTiter-Glo), NOMO-1. Format: cell-based. The conditions noted are these: Homo sapiens, NOMO-1, 72 h; acute myeloid leukemia; BRAF WT, KRAS-G13D; 3 days. An excerpt:
(§9) In order to determine the effects of Formula I on proliferation, a growth assay was established using melanoma cells (A375 and COLO829) and colorectal carcinoma cells (COLO205, HT-29) which each express the BRAFV600E mutation. To show selectivity over wild-type BRAF, several BRAF wild-type cell lines (K562, NOMO-1, MV-4-11 and ML-2) were also examined in the growth assay. The growth assay implemented the Promega CellTiter-Glo Luminescent Cell viability assay, which gives a luminescent readout that is proportional to the amount of ATP present in a cell sample. As ATP levels directly correlate with the number of viable cells, the luminescent signal can be used to determine the potency of Formula I to block the proliferation of the cell lines of interest.
(§10) 1. 3,000 cells were plated in each well for cell lines A375, COLO205, COLO829, HT-29, and SK-MEL-3. 25,000 cells were plated in each well for cell lines K562, ML-2, MV-4-11, and
(§11) NOMO-1 of a 96-well tissue-culture-treated plate (Corning #3610) in a 50 μL volume. Cells were incubated overnight at 37° C.
(§12) 2. Each test compound was plated as an 8-point titration, using 1:3 dilutions in DMSO. The maximum concentration was about 5 mM. Dilute DMSO and test compound of Formula I 1:250 in growth media.
3. […]
(§13) 4. […] Luminescence was measured on a Tecan Safire plate reader. […]
(Cellular ATP, detected with luciferase, serves as a proxy for viable cell number.)

A further assay addresses BRAF_V600M (Homo sapiens, UniProt P15056, V600M). As to the kind of experiment: RAF kinase biochemical assay, BRAF V600M. The conditions noted are these: Table 3; ATP 100 μM. The protocol:
as §4, §5, §6, §7, §8

Assay [3] deals with BRAF-V600E in vemurafenib-resistant SK-MEL-239 C3 cells.
A further assay has as its system MV-4-11 cells. Briefly: Growth assay (CellTiter-Glo), MV-4-11. It is filed as cell-based. To be noted: Homo sapiens, MV4-11, 72 h; biphenotypic B myelomonocytic leukemia; BRAF WT, RAS WT; 3 days.
Description: as §9, §10, §11, §12
3. […]
as §13

A further assay has as its system K562 cells. Briefly: Growth assay (CellTiter-Glo), K562. It is filed as cell-based. The conditions noted are these: Homo sapiens, K562, 72 h; chronic myeloid leukemia; BRAF WT, RAS WT; 3 days.
Description: as §9, §10, §11, §12
3. […]
as §13

The target of another assay is BRAF_V600R (Homo sapiens, UniProt P15056, V600R). Briefly: RAF kinase biochemical assay, BRAF V600R. The conditions noted are these: Table 3; ATP 100 μM. How it is done: as §4, §5, §6, §7, §8
Sequence of BRAF_V600R (P15056 448-723 V600R): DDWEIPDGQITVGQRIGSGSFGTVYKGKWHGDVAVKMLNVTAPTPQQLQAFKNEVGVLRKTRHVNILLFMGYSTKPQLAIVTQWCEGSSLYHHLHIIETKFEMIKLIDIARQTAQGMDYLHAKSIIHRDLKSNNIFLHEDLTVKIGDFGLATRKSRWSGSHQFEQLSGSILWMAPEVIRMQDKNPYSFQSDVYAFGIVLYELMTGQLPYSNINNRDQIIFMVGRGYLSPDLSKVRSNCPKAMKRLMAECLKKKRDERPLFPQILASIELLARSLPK
The next assay addresses BRAF_V600A (Homo sapiens, UniProt P15056, V600A). As to the kind of experiment: RAF kinase biochemical assay, BRAF V600A. The conditions noted are these: Table 3; ATP 100 μM. The protocol: as §4, §5, §6, §7, §8
A further assay addresses BRAF_V600G (Homo sapiens, UniProt P15056, V600G). Briefly: RAF kinase biochemical assay, BRAF V600G. The conditions noted are these: Table 3; ATP 100 μM. The protocol: as §4, §5, §6, §7, §8
For assay [4], the target named is NIH/3T3 cells stably expressing KIAA1549-BRAF fusions (Homo sapiens, UniProt P15056). Briefly: BRAF fusion xenograft tumor growth. Format: in vivo, balb/c nu/nu mice. The conditions noted are these: all three xenografts (three of the four KIAA1549-BRAF fusions); flank of balb/c nu/nu mice. The protocol:
NIH/3T3 (ATCC® CRL-1658™) cells stably expressing KIAA1549-BRAF fusions (Fusion-1, Fusion-2, Fusion-3, and Fusion-4) were injected into the flank of balb/c nu/nu mice. Tumor growth was measured with calipers. Ellipsoid tumor volume was calculated using the following formula: volume=½·length·width^2.

Sequence of BRAF_V600K (P15056 448-723 V600K): as the sequence (P15056 448-723 V600R) above, with R153K counted along it
Sequence of BRAF_V600A (P15056 432-726 V600A): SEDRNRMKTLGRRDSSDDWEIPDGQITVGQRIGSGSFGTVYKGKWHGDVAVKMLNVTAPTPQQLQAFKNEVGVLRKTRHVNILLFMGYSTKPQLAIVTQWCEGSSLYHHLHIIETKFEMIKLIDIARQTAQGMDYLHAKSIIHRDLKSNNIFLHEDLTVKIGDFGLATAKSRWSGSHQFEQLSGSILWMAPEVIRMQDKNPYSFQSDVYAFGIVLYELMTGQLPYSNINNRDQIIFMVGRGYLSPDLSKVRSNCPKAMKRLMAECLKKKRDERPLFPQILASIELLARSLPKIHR
Sequence of NIH/3T3 cells stably expressing KIAA1549-BRAF fusions (P15056 448-766 limits assumed): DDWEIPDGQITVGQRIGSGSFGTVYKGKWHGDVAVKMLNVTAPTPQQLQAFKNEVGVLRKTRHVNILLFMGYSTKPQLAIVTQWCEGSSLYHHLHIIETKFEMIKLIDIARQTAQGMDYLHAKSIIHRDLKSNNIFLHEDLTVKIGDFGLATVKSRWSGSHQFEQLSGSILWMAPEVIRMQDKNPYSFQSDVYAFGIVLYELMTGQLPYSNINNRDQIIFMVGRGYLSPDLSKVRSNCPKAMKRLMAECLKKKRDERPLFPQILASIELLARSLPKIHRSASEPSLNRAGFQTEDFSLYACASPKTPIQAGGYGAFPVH
Sequence of BRAF_V600G (P15056 432-726 V600G): as the sequence (P15056 432-726 V600A) above, with A169G counted along it
Sequence of BRAF_V600M (P15056 432-726 V600M): as the sequence (P15056 432-726 V600A) above, with A169M counted along it

Take `CCN(C)S(=O)(=O)Nc1ccc(F)c(C(=O)c2c[nH]c3ncc(-c4cnc(C5CC5)nc4)cc23)c1F` [Formula II, 5-(2-cyclopropylpyrimidin-5-yl)-3-[3-[[ethyl(methyl)sulfamoyl]amino]-2,6-difluoro-benzoyl]-1H-pyrrolo[2,3-b]pyridine]: in assay [1], the “Change of pERK levels in A431 (in words)” value is on record as “did not increase pERK levels”. The “Change of pERK levels in SKBR3 (in words)” value in [2] is “did not increase pERK levels”.

Consider `O=C(c1c(F)ccc(NS(=O)(=O)N2CC[C@@H](F)C2)c1F)c1c[nH]c2ncc(-c3cnc(C4CC4)nc3)cc12` [Formula I, (3R)—N-[3-[5-(2-cyclopropylpyrimidin-5-yl)-1H-pyrrolo[2,3-b]pyridine-3-carbonyl]-2,4-difluorophenyl]-3-fluoropyrrolidine-1-sulfonamide], for which the IC50 at BRAF_V600K is 3.9 nM; in the assay with NOMO-1 cells, greater than 10000 nM; on BRAF_V600M it was 9.8 nM; in the assay with MV-4-11 cells, greater than 10000 nM; in the assay with K562 cells, greater than 10000 nM; on BRAF_V600R it was 3.5 nM. For the same molecule, the figures for the IC50 against BRAF_V600A and at BRAF_V600G were 14.2 nM and 6.3 nM, respectively. In addition, in [3], the “Inhibition of BRAF-V600E in vemurafenib-resistant C3 (in words)” value is reported as “potent inhibitor”. The “Inhibition of xenograft growth (tumor volume)” value in assay [4] is no less than 50%.

As usually defined, the IC50 is the midpoint of a concentration-inhibition curve. A high value points to a need for much substance.
